Measured values from ChEMBL document CHEMBL1201862, “PubChem BioAssay data set” (2004).
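Assay format: 96-well plates, 48-hour exposure. GI50 is the concentration that inhibits growth by half.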 Activity calls are given as the source filed them. No stated cut-off is given here; in the data, active = GI50 up to about 1.1 µM and inactive = higher.

Assays:
Assay in all cases: NCI anticancer screen, dose series, 48 h
HL-60 = system: HL-60
HOP-92 = system: HOP-92
Hs-578T = system: Hs-578T
KM12 = system: KM12
LOX IMVI = system: LOX IMVI
MCF7 = system: MCF7
MDA-MB-231 = system: MDA-MB-231
NCI-H23 = system: NCI-H23
NCI-H522 = system: NCI-H522
NCI/ADR-RES = system: NCI/ADR-RES
OVCAR-3 = system: OVCAR-3
OVCAR-8 = system: OVCAR-8
RXF 393 = system: RXF 393
SF-295 = system: SF-295
SK-MEL-5 = system: SK-MEL-5
SN12C = system: SN12C
SNB-19 = system: SNB-19
SNB-75 = system: SNB-75
K562 = system: K562
SR = system: SR

Compound	GI50 (HL-60)	GI50 (HOP-92)	GI50 (Hs-578T)	GI50 (KM12)	GI50 (LOX IMVI)	GI50 (MCF7)	GI50 (MDA-MB-231)	GI50 (NCI-H23)	GI50 (NCI-H522)	GI50 (NCI/ADR-RES)	GI50 (OVCAR-3)	GI50 (OVCAR-8)	GI50 (RXF 393)	GI50 (SF-295)	GI50 (SK-MEL-5)	GI50 (SN12C)	GI50 (SNB-19)	GI50 (SNB-75)	GI50 (K562)	GI50 (SR)
Oc1cc(O)c2c(c1)OC(c1ccc(O)c(O)c1)C(O)C2c1c(O)cc(O)c2c1OC(c1ccc(O)c(O)c1)C(O)C2 (centres undefined)	0.0323 µM (active)	> 100 µM (inactive)	> 100 µM (inactive)	46.5 µM (inactive)	> 100 µM (inactive)	> 100 µM (inactive)	> 100 µM (inactive)	> 100 µM (inactive)	> 100 µM (inactive)	> 100 µM (inactive)	> 100 µM (inactive)	> 100 µM (inactive)	> 100 µM (inactive)	> 100 µM (inactive)	> 100 µM (inactive)	> 100 µM (inactive)	> 100 µM (inactive)	> 100 µM (inactive)		
CC(C)=CCOC(=O)C(C)=[N+]=[N-]	42.6 µM (inactive)		> 100 µM (inactive)	> 100 µM (inactive)	> 100 µM (inactive)	> 100 µM (inactive)	> 100 µM (inactive)	> 100 µM (inactive)	> 100 µM (inactive)	> 100 µM (inactive)	> 100 µM (inactive)	> 100 µM (inactive)		> 100 µM (inactive)	> 100 µM (inactive)	> 100 µM (inactive)	> 100 µM (inactive)	> 100 µM (inactive)	> 100 µM (inactive)	> 100 µM (inactive)
O=C(c1ccco1)N(C(=S)OCCOc1ccccc1)c1ccccc1	24.3 µM (inactive)	14.8 µM (inactive)	32.1 µM (inactive)	19.5 µM (inactive)	19.3 µM (inactive)	20.7 µM (inactive)	16.4 µM (inactive)	21.3 µM (inactive)	17.1 µM (inactive)	25.7 µM (inactive)	16.5 µM (inactive)	19.8 µM (inactive)	13.8 µM (inactive)	16.2 µM (inactive)		19.5 µM (inactive)	26.7 µM (inactive)		28.4 µM (inactive)	
O=C(OC1=CCN(Br)C1=O)C1=C(O)C(=O)N(Br)C1	24.5 µM (inactive)		27 µM (inactive)	32.2 µM (inactive)	20.9 µM (inactive)	33 µM (inactive)	29.2 µM (inactive)	32.4 µM (inactive)	14.3 µM (inactive)	> 100 µM (inactive)	20.8 µM (inactive)	31.3 µM (inactive)	20 µM (inactive)	26.9 µM (inactive)	17.2 µM (inactive)	17.3 µM (inactive)	20.2 µM (inactive)	24.3 µM (inactive)	29.1 µM (inactive)	21.4 µM (inactive)
Cc1cc2c(Br)cc(Br)c(O)c2nc1C(=O)c1ccccc1	4.4 µM (inactive)		> 100 µM (inactive)	22.3 µM (inactive)	10.4 µM (inactive)	10.1 µM (inactive)	20 µM (inactive)	13.1 µM (inactive)	13.5 µM (inactive)	4.01 µM (inactive)	20.3 µM (inactive)	35 µM (inactive)	> 47.5 µM (inactive)	10.6 µM (inactive)	14.5 µM (inactive)	20.2 µM (inactive)	24.9 µM (inactive)	> 74.1 µM (inactive)	10.4 µM (inactive)	14.9 µM (inactive)
NCC(=O)NC(CO)C(=O)O (centres undefined)	> 100 µM (inactive)	> 100 µM (inactive)	> 100 µM (inactive)	> 100 µM (inactive)	> 100 µM (inactive)	> 100 µM (inactive)	> 100 µM (inactive)	> 100 µM (inactive)	> 100 µM (inactive)	> 100 µM (inactive)	> 100 µM (inactive)	> 100 µM (inactive)	> 100 µM (inactive)	> 100 µM (inactive)	> 100 µM (inactive)	> 100 µM (inactive)	> 100 µM (inactive)	> 100 µM (inactive)	> 100 µM (inactive)	
COc1ccc(N(C(=O)OC(C)(C)C)[C@@H]2C(C)=C[C@H]([S@@+]([O-])c3ccc(C)cc3)[C@@H]3C(=O)N(C)C(=O)[C@@H]32)cc1	22 µM (inactive)	17.7 µM (inactive)	15.5 µM (inactive)	11.6 µM (inactive)	3.85 µM (inactive)	15.2 µM (inactive)	17.4 µM (inactive)	20.9 µM (inactive)	4.2 µM (inactive)	21.5 µM (inactive)	27.1 µM (inactive)	20.5 µM (inactive)	15.3 µM (inactive)	15.8 µM (inactive)	16.6 µM (inactive)	11 µM (inactive)	17.5 µM (inactive)	4.94 µM (inactive)	30 µM (inactive)	
